Molecules are shown by their SMILES.

One experiment has as its target T1, WNV protease (UniProt Q9Q6P4).
T1 construct: "expression and purification of WNV (EG101 strain) were similar to those described elsewhere by Mueller et al."
T1 sequence (Q9Q6P4 1506-2124): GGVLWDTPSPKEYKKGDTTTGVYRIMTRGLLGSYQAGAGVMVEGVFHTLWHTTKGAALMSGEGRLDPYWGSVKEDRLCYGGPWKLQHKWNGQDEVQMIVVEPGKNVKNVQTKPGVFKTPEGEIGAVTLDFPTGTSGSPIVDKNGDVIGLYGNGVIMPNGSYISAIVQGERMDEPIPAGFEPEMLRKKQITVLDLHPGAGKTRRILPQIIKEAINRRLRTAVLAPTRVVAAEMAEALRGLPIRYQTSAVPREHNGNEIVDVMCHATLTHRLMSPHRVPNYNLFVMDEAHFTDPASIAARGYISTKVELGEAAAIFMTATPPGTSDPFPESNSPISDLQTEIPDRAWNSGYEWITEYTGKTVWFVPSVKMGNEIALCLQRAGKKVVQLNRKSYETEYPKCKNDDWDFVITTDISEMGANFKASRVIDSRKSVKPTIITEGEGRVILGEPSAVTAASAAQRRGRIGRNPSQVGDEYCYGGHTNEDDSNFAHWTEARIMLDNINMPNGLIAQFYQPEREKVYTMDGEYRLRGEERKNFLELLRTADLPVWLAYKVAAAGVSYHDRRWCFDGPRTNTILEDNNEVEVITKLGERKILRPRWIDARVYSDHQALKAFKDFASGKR
As to the kind of experiment: in vitro WNV protease assay (Example 2). The class given is biochemical, West Nile Virus (EG101 strain). To be noted: Protease Inhibition Activity, Table 1; read-out: IC50 (μM) WNVpro. The protocol:
Procedures for expression and purification of WNV (EG101 strain) were similar to those described elsewhere by Mueller et al., Int. J. Biochem. Cell. Biol., 39: 606-14 (2007). Briefly, E. coli Top10 F′ cells (Invitrogen, Carlsbad, Calif.) were transformed with the protease expression plasmid. Cells were grown at 37° C. until the OD600 was ˜0.5. Cells were then induced with isopropyl-1-thio-β-D-galactopyranoside (American Bioanalytical, Natick, Mass.) (0.5 mM), and incubated for 4 h at 37° C. Cells were harvested by centrifugation (5000×g) for 15 min at 4° C., washed once with a buffer containing 50 mM Tris-HCl, pH 7.5, and 200 mM NaCl, centrifuged at 5000×g for 15 min at 4° C., and stored at −80° C. until used.
Proteases were purified by suspending bacterial pellets in 50 mM Hepes, pH 7.0, 500 mM NaCl, (buffer A) with 0.05 mg/ml lysozyme. Cells were incubated for 30 min on ice after addition of 10% stock solution of Triton X-100 (final concentration of 0.5%). Cells were disrupted by sonication for 2 min and the soluble fraction was collected after centrifugation (15,000×g) for 30 min at 4° C. The soluble fraction was incubated for 1 h at 4° C. with Talon resin (BD Bioscience, San Jose, Calif.) which was pre-equilibrated in buffer A. The affinity resin was centrifuged at (400×g) for 10 min at 4° C., washed three times with buffer A, and packed into a column. Washing of the column was continued with the buffer A containing 10 mM imidazole, followed by elution of the protease with buffer A containing 150 mM imidazole. The protease was concentrated and further purified by Sephadex G-75 gel filtration chromatography. The purified protease fractions were pooled and dialyzed against a buffer containing 50 mM Tris-HCl pH 7.5 and 300 mM NaCl (4×1L). Aliquots (100 μl) were frozen at −80° C.
(§1) Compounds I-1 to I-14 and II-1 to II-4 (which were synthesized using methods of organic synthesis as discussed above) were analyzed by in vitro protease assays performed in opaque 96-well plates. The enzyme kinetics was done under steady-state conditions. The standard reaction mixtures (50 μL) containing 200 mM Tris-HCl, pH 9.5, 6 mM NaCl, 30% glycerol, 67 nM of WNV protease and 50 μM inhibitor in each assay were incubated for 15 min at room temperature. Reactions were started by the addition of the substrate Boc-Gly-Lys-Arg-AMC at 100 μM final concentration and incubated at room temperature for 15 min. The absorbance of each well containing para-nitroaniline was measured at 405 nm using a spectrophotometer (Molecular Devices, Sunnyvale, Calif.); the fluorescence of AMC released from the WNV substrate was measured using a Tecan Geneios (Durham, N.C.) spectrofluorometer at excitation and emission wavelengths of 390 nm and 420 nm, respectively. Similarly, the WNV protease activity was also determined using the fluorogenic tetrapeptide substrate containing the P4-P1 residues and the fluorogenic group, 4-methoxy-β-naphthylamide (MNA), at P1′ position (Z-Val-Lys-Lys-Arg-MNA) (SEQ ID NO:1). Fluorescence was measured using a spectrofluorometer (Molecular Devices) at excitation and emission wavelengths of 290 and 420 nm, respectively. Fluorescence values obtained with no inhibitor control were taken as 100% and those in the presence of inhibitors were plotted as the percent inhibition of the control.
(§2) Compounds I-2, I-4, I-6, I-7, I-8, I-9, I-23, I-26, I-27, I-28, I-29, I-30, I-31, I-32, III-1, III-2, VI-1, VI-2, VI-3, and VI-4 were also tested for WNV protease inhibition activity according to the procedure detailed above. Further, Compounds I-28, V-1, VI-2, VI-3, VI-4, and IX-1 were tested for DENV protease inhibition activity. The structures of Compounds I-2, I-4, I-6, I-7, I-8, I-9, I-23, I-26, I-27, I-28, I-29, I-30, I-31, I-32, III-1, III-2, VI-1, VI-2, VI-3, VI-4, and IX-1 are provided above.
In general, IC50 refers to the concentration at which inhibition is half-maximal. With `O=c1c2ccccc2sn1C(Cc1ccccc1)c1nnc(Cc2ccccc2)o1` (centres unmarked) [VI-2], the IC50 worked out at 2.1 µM.
Still for that read-out and setting: the same measure for `O=C(CNC(=O)Nc1ccc(Oc2ccccc2)cc1)NCc1ccccc1` [Compound I-7]: 26.1 µM; for `O=C(Nc1ccc(Oc2ccccc2)cc1)C(C(=O)OCc1ccccc1)n1sc2ccccc2c1=O` (centres unmarked) [Compound I-29]: 9 µM; for `O=C(Nc1cccc(Oc2ccccc2)c1)C(Cc1ccccc1)n1sc2ccccc2c1=O` (centres unmarked) [Compound I-31]: 2.6 µM.
On to `O=C(CNC(=O)Nc1ccc(Oc2ccccc2)cc1)Nc1ccccc1` [Compound I-9], for which the IC50 was 31.2 µM.
Turning to `O=C(Nc1ccc(Oc2ccccc2)cc1)C(Cc1ccccc1)N1Cc2ccccc2C1=O` (centres unmarked) [Compound I-4], the IC50 came to 19.7 µM.
For `O=C(CCC(C(=O)Nc1cccc(Oc2ccccc2)c1)N1Cc2ccccc2C1=O)OCc1ccccc1` (centres unmarked) [Compound I-27], the IC50 is 22.7 µM.
Still for that read-out and setting: to `O=c1c2ccccc2sn1C(Cc1ccccc1)c1nnc(-c2cccc(F)c2)o1` (centres unmarked) [VI-4] belongs 9.8 µM; to `O=C(CCC(C(=O)Nc1ccc(Oc2ccccc2)cc1)N1Cc2ccccc2C1=O)OCc1ccccc1` (centres unmarked) [Compound I-28], 15.5 µM.
Still for that read-out and setting: to `O=C(CNC(=O)Nc1cccc(Oc2ccccc2)c1)NCc1ccccc1` [Compound I-6] belongs 22.1 µM.
On the same count and under the same terms, the same measure for `O=C(CSc1nc2ccccc2s1)Nc1nc2ccccc2s1` [III-2]: 34.1 µM; for `O=C(CC(C(=O)Nc1cccc(Oc2ccccc2)c1)N1Cc2ccccc2C1=O)OCc1ccccc1` (centres unmarked) [Compound I-26]: 13 µM.
`O=c1c2ccccc2sn1C(Cc1ccccc1)c1nnc(-c2cccc(Cl)c2)o1` (centres unmarked) [VI-3]: the IC50 turned out to be 7.6 µM.
For `O=C(CSc1nc(-c2ccccc2)no1)Nc1nc2ccccc2[nH]1` [III-1], the IC50 is 14.7 µM.
Same read-out and setting: the same measure for `O=C(CNC(=O)Nc1cccc(Oc2ccccc2)c1)Nc1ccccc1` [Compound I-8]: 22.9 µM; for `O=C(Nc1cccc(Oc2ccccc2)c1)C(Cc1ccccc1)N1Cc2ccccc2C1=O` (centres unmarked) [Compound I-2]: 11.1 µM; for `O=C(Nc1ccc(Oc2ccccc2)cc1)C(Cc1ccccc1)n1sc2ccccc2c1=O` (centres unmarked) [Compound I-32]: 6.6 µM.
Still for that read-out and setting: to `O=C(Nc1ccccc1Oc1ccccc1)C(Cc1ccccc1)n1sc2ccccc2c1=O` (centres unmarked) [Compound I-30] belongs 6 µM.
Still for that read-out and setting: the same measure for `COc1ccc(Cc2nnc(C(Cc3ccccc3)n3sc4ccccc4c3=O)o2)cc1` (centres unmarked) [VI-1]: 26 µM; for `O=C(CCCCc1ccccc1)Nc1cccc(Oc2ccccc2)c1` [Compound I-23]: 38.6 µM.

The target in another experiment is DENV protease (Dengue virus type 2, UniProt P14340). Put plainly: DENV protease inhibition activity. The class given is biochemical.
Chain of DENV protease (P14340 1394-1440): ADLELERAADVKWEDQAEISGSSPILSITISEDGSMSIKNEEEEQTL
Chain of DENV protease (P14340 1476-1653): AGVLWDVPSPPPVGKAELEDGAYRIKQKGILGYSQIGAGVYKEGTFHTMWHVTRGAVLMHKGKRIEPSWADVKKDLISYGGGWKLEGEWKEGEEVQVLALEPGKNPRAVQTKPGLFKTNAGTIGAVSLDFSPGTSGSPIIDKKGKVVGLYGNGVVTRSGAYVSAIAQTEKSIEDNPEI
Conditions: not given
The protocol: as §1, §2
The molecule `O=C1c2ccccc2CN1C(Cc1ccccc1)c1nnc(-c2cccc(Cl)c2)o1` (centres unmarked) [Compound V-1] displayed an IC50 of 12.2 µM.
`O=c1c2ccccc2sn1C(Cc1ccccc1)c1nnc(Cc2ccccc2)o1` (centres unmarked) [VI-2] showed a 50% inhibitory concentration (IC50) of 9.6 µM.
`O=c1c2ccccc2sn1C(Cc1ccccc1)c1nnc(-c2cccc(F)c2)o1` (centres unmarked) [VI-4] yielded an IC50 of 11.4 µM.
Regarding `O=C(CCC(C(=O)Nc1ccc(Oc2ccccc2)cc1)N1Cc2ccccc2C1=O)OCc1ccccc1` (centres unmarked) [Compound I-28], the midpoint of inhibition, the IC50, lay at 45 µM.
The same measure, in the same setting: to `O=c1c2ccccc2sn1C(Cc1ccccc1)c1nnc(-c2cccc(Cl)c2)o1` (centres unmarked) [VI-3] belongs 10.6 µM; to `O=C(CSc1nc2ccccc2c(=O)[nH]1)Nc1cccc(Oc2ccccc2)c1` [IX-1], 89 µM.

For the origin of these results see patent publication US8513295B2, “Viral and fungal inhibitors” (Georgetown University, priority 2008, dated 2013).
